Values after ≈ are worked out from the molar mass of the structure shown. Read-outs that look alike come from different tables or passages of the source.
Experiments:
Assay type in all cases: cell-based
[1] = tested on: Staphylococcus epidermidis ATCC 35984; assay: MIC, broth microdilution, MDR/BPSE reference strain; details: Staphylococcus epidermidis, ATCC35984, read-out: MIC MDR/BPSE, Staphylococcus epidermidis ATCC 35984
Source text: (§1) These strains included susceptible, multidrug-resistant, and biofilm-producing strains of S. epidermidis and S. aureus (MSSE, MDR/BPSE, and MDR/BPSA, respectively). The cornerstone antibiotic linezolid served as a positive control (Table 1). The impact of structural modifications at the aryloxy fragment and the aromatic moiety bound to the propyl linker on the inhibitory activity was initially investigated. […] Further optimization focused on evaluating the impact of the type of substituent and its position on the arylsulfonamide fragment’s activity.
(§2) 2 Biological assay protocols
(§3) Microbiological tests were carried out under aseptic conditions in a laminar chamber of the 2nd […]
(§4) (BioTectum 1.2, Alchem Poland). The assessment of antimicrobial activity was carried out for final compounds in the form of free bases, soluble in DMSO (Merck, Germany), at the initial […]
(§5) concentration of 1 mg/mL. […]
(§6) were provided by Cayman Chemical, USA.
(§7) The activity of all newly synthesized compounds was tested in vitro on a panel of selected reference strains from the American Type Culture Collection (ATCC) of Gram-positive […]
(§8) 2.2 Effect of evaluated compounds on planktonic cells
(§9) The susceptibility of three reference bacterial strains (Staphylococcus epidermidis ATCC […]
(§10) Table S1) and 81 clinical MDR S. epidermidis (Table S2) to the tested compounds was assessed by determining the MIC value (Minimal Inhibitory Concentration) by microdilution in a liquid medium in 96-well flat-bottom cell culture plates (Nest Biotechnology Scientific, USA). The antibacterial properties of the compo unds were tested in the concentration range from 50 µg/mL to 0.1 µg/mL by making a series of double dilutions of the compound in liquid Mueller -Hinton II Broth Cation Adjusted (MHB II, BBL TM, USA) according to the European Committee on […]
(§11) Antimicrobial Susceptibility Testing guidelines (EUCAST).2,3 The determinations were performed twice. The MIC50 and MIC90 values were determined for each of the tested

[2] = tested on: clinical MDR Staphylococcus epidermidis isolates; assay: MIC, broth microdilution, 81 clinical MDR strains; details: Staphylococcus epidermidis
Procedure: as §2, §3, §4, §5
were provided by Cayman Chemical, USA. […]
The antibacterial activity of selected compounds was also tested on a panel of 81 unrelated, multidrug -resistant clinical strains of Staphylococcus epidermidis from the own collection of the Department of Pharmaceutical Microbiology of the Jagiellonian University Medical College.
as §8, §9, §10, §11

[3] = tested on: Staphylococcus aureus ATCC BAA-976; assay: MIC, broth microdilution, MDR/BPSA reference strain; details: ATCCBAA976; Staphylococcus aureus ATCC BAA-976; read-out: MIC MDR/BPSA
Source text: as §1, §2, §3, §4, §5, §6, §7, §8, §9, §10, §11

## CC(=O)NC[C@H]1CN(c2ccc(N3CCOCC3)c(F)c2)C(=O)O1 [linezolid, reference compound]
[1]
  MIC: 1.6 µg/mL (≈ 4.74 µM)
[2]; clinical strain 1 (Table S2), read-out: MIC
  MIC: 1.6 µg/mL (≈ 4.74 µM)
[2]; clinical strain 2 (Table S2), read-out: MIC
  MIC: 1.6 µg/mL (≈ 4.74 µM)
[2]; clinical strain 3 (Table S2), read-out: MIC
  MIC: 1.6 µg/mL (≈ 4.74 µM)
[2]; clinical strain 4 (Table S2), read-out: MIC
  MIC: 1.6 µg/mL (≈ 4.74 µM)
[2]; clinical strain 5 (Table S2), read-out: MIC
  MIC: 1.6 µg/mL (≈ 4.74 µM)
[2]; clinical strain 6 (Table S2), read-out: MIC
  MIC: 1.6 µg/mL (≈ 4.74 µM)
[2]; clinical strain 7 (Table S2), read-out: MIC
  MIC: 1.6 µg/mL (≈ 4.74 µM)
[2]; clinical strain 8 (Table S2), read-out: MIC
  MIC: 1.6 µg/mL (≈ 4.74 µM)
[2]; clinical strain 9 (Table S2), read-out: MIC
  MIC: 1.6 µg/mL (≈ 4.74 µM)
[2]; clinical strain 10 (Table S2), read-out: MIC
  MIC: 1.6 µg/mL (≈ 4.74 µM)
[2]; clinical strain 11 (Table S2), read-out: MIC
  MIC: 1.6 µg/mL (≈ 4.74 µM)
[2]; clinical strain 12 (Table S2), read-out: MIC
  MIC: 0.8 µg/mL (≈ 2.37 µM)
[2]; clinical strain 13 (Table S2), read-out: MIC
  MIC: 1.6 µg/mL (≈ 4.74 µM)
[2]; clinical strain 14 (Table S2), read-out: MIC
  MIC: 1.6 µg/mL (≈ 4.74 µM)
[2]; clinical strain 15 (Table S2), read-out: MIC
  MIC: 1.6 µg/mL (≈ 4.74 µM)
[2]; clinical strain 16 (Table S2), read-out: MIC
  MIC: 1.6 µg/mL (≈ 4.74 µM)
[2]; clinical strain 17 (Table S2), read-out: MIC
  MIC: 0.8 µg/mL (≈ 2.37 µM)
[2]; clinical strain 18 (Table S2), read-out: MIC
  MIC: 0.8 µg/mL (≈ 2.37 µM)
[2]; clinical strain 19 (Table S2), read-out: MIC
  MIC: 1.6 µg/mL (≈ 4.74 µM)
[2]; clinical strain 20 (Table S2), read-out: MIC
  MIC: 1.6 µg/mL (≈ 4.74 µM)
[2]; clinical strain 21 (Table S2), read-out: MIC
  MIC: 1.6 µg/mL (≈ 4.74 µM)
[2]; clinical strain 22 (Table S2), read-out: MIC
  MIC: 1.6 µg/mL (≈ 4.74 µM)
[2]; clinical strain 23 (Table S2), read-out: MIC
  MIC: 1.6 µg/mL (≈ 4.74 µM)
[2]; clinical strain 24 (Table S2), read-out: MIC
  MIC: 1.6 µg/mL (≈ 4.74 µM)
[2]; clinical strain 25 (Table S2), read-out: MIC
  MIC: 1.6 µg/mL (≈ 4.74 µM)
[2]; clinical strain 26 (Table S2), read-out: MIC
  MIC: 0.8 µg/mL (≈ 2.37 µM)
[2]; clinical strain 27 (Table S2), read-out: MIC
  MIC: 1.6 µg/mL (≈ 4.74 µM)
[2]; clinical strain 28 (Table S2), read-out: MIC
  MIC: 1.6 µg/mL (≈ 4.74 µM)
[2]; clinical strain 29 (Table S2), read-out: MIC
  MIC: 0.8 µg/mL (≈ 2.37 µM)
[2]; clinical strain 30 (Table S2), read-out: MIC
  MIC: 1.6 µg/mL (≈ 4.74 µM)
[2]; clinical strain 31 (Table S2), read-out: MIC
  MIC: 1.6 µg/mL (≈ 4.74 µM)
[2]; clinical strain 32 (Table S2), read-out: MIC
  MIC: 1.6 µg/mL (≈ 4.74 µM)
[2]; clinical strain 33 (Table S2), read-out: MIC
  MIC: 0.8 µg/mL (≈ 2.37 µM)
[2]; clinical strain 34 (Table S2), read-out: MIC
  MIC: 1.6 µg/mL (≈ 4.74 µM)
[2]; clinical strain 35 (Table S2), read-out: MIC
  MIC: 1.6 µg/mL (≈ 4.74 µM)
[2]; clinical strain 36 (Table S2), read-out: MIC
  MIC: 0.8 µg/mL (≈ 2.37 µM)
[2]; clinical strain 37 (Table S2), read-out: MIC
  MIC: 0.8 µg/mL (≈ 2.37 µM)
[2]; clinical strain 38 (Table S2), read-out: MIC
  MIC: 0.8 µg/mL (≈ 2.37 µM)
[2]; clinical strain 39 (Table S2), read-out: MIC
  MIC: 0.8 µg/mL (≈ 2.37 µM)
[2]; clinical strain 40 (Table S2), read-out: MIC
  MIC: 0.4 µg/mL (≈ 1.19 µM)
[2]; clinical strain 41 (Table S2), read-out: MIC
  MIC: 0.8 µg/mL (≈ 2.37 µM)
[2]; clinical strain 42 (Table S2), read-out: MIC
  MIC: 1.6 µg/mL (≈ 4.74 µM)
[2]; clinical strain 43 (Table S2), read-out: MIC
  MIC: 0.8 µg/mL (≈ 2.37 µM)
[2]; clinical strain 44 (Table S2), read-out: MIC
  MIC: 1.6 µg/mL (≈ 4.74 µM)
[2]; clinical strain 45 (Table S2), read-out: MIC
  MIC: 0.8 µg/mL (≈ 2.37 µM)
[2]; clinical strain 46 (Table S2), read-out: MIC
  MIC: 1.6 µg/mL (≈ 4.74 µM)
[2]; clinical strain 47 (Table S2), read-out: MIC
  MIC: 0.8 µg/mL (≈ 2.37 µM)
[2]; clinical strain 48 (Table S2), read-out: MIC
  MIC: 3.12 µg/mL (≈ 9.26 µM)
[2]; clinical strain 49 (Table S2), read-out: MIC
  MIC: 0.2 µg/mL (≈ 0.593 µM)
[2]; clinical strain 50 (Table S2), read-out: MIC
  MIC: 0.2 µg/mL (≈ 0.593 µM)
[2]; clinical strain 51 (Table S2), read-out: MIC
  MIC: 0.2 µg/mL (≈ 0.593 µM)
[2]; clinical strain 52 (Table S2), read-out: MIC
  MIC: 0.4 µg/mL (≈ 1.19 µM)
[2]; clinical strain 53 (Table S2), read-out: MIC
  MIC: 0.4 µg/mL (≈ 1.19 µM)
[2]; clinical strain 54 (Table S2), read-out: MIC
  MIC: 0.8 µg/mL (≈ 2.37 µM)
[2]; clinical strain 55 (Table S2), read-out: MIC
  MIC: 0.8 µg/mL (≈ 2.37 µM)
[2]; clinical strain 56 (Table S2), read-out: MIC
  MIC: 0.8 µg/mL (≈ 2.37 µM)
[2]; clinical strain 57 (Table S2), read-out: MIC
  MIC: 0.8 µg/mL (≈ 2.37 µM)
[2]; clinical strain 58 (Table S2), read-out: MIC
  MIC: 0.8 µg/mL (≈ 2.37 µM)
[2]; clinical strain 59 (Table S2), read-out: MIC
  MIC: 0.8 µg/mL (≈ 2.37 µM)
[2]; clinical strain 60 (Table S2), read-out: MIC
  MIC: 0.8 µg/mL (≈ 2.37 µM)
[2]; clinical strain 61 (Table S2), read-out: MIC
  MIC: 0.8 µg/mL (≈ 2.37 µM)
[2]; clinical strain 62 (Table S2), read-out: MIC
  MIC: 0.8 µg/mL (≈ 2.37 µM)
[2]; clinical strain 63 (Table S2), read-out: MIC
  MIC: 0.8 µg/mL (≈ 2.37 µM)
[2]; clinical strain 64 (Table S2), read-out: MIC
  MIC: 0.8 µg/mL (≈ 2.37 µM)
[2]; clinical strain 65 (Table S2), read-out: MIC
  MIC: 0.8 µg/mL (≈ 2.37 µM)
[2]; clinical strain 66 (Table S2), read-out: MIC
  MIC: 0.8 µg/mL (≈ 2.37 µM)
[2]; clinical strain 67 (Table S2), read-out: MIC
  MIC: 1.6 µg/mL (≈ 4.74 µM)
[2]; clinical strain 68 (Table S2), read-out: MIC
  MIC: 1.6 µg/mL (≈ 4.74 µM)
[2]; clinical strain 69 (Table S2), read-out: MIC
  MIC: 1.6 µg/mL (≈ 4.74 µM)
[2]; clinical strain 70 (Table S2), read-out: MIC
  MIC: 1.6 µg/mL (≈ 4.74 µM)
[2]; clinical strain 71 (Table S2), read-out: MIC
  MIC: 1.6 µg/mL (≈ 4.74 µM)
[2]; clinical strain 72 (Table S2), read-out: MIC
  MIC: 1.6 µg/mL (≈ 4.74 µM)
[2]; clinical strain 73 (Table S2), read-out: MIC
  MIC: 1.6 µg/mL (≈ 4.74 µM)
[2]; clinical strain 74 (Table S2), read-out: MIC
  MIC: 1.6 µg/mL (≈ 4.74 µM)
[2]; clinical strain 75 (Table S2), read-out: MIC
  MIC: 1.6 µg/mL (≈ 4.74 µM)
[2]; clinical strain 76 (Table S2), read-out: MIC
  MIC: 1.6 µg/mL (≈ 4.74 µM)
[2]; clinical strain 77 (Table S2), read-out: MIC
  MIC: 1.6 µg/mL (≈ 4.74 µM)
[2]; clinical strain 78 (Table S2), read-out: MIC
  MIC: 3.12 µg/mL (≈ 9.26 µM)
[2]; clinical strain 79 (Table S2), read-out: MIC
  MIC: 12.5 µg/mL (≈ 37.1 µM)
[2]; clinical strain 80 (Table S2), read-out: MIC
  MIC: 25 µg/mL (≈ 74.1 µM)
[2]; clinical strain 81 (Table S2), read-out: MIC
  MIC: 50 µg/mL (≈ 148 µM)
[2]; mean of MIC values against clinical MDR-SE isolates, read-out: mean MIC
  MIC: 2.3 µg/mL (≈ 6.82 µM)
[2]; 81 clinical strains, concentration inhibiting growth of 50% clinical isolates
  MIC50: 0.8 µg/mL (≈ 2.37 µM)
[2]; 81 clinical strains, concentration inhibiting growth of 90% of clinical isolates
  MIC90: 1.6 µg/mL (≈ 4.74 µM)
[3]
  MIC: 1.6 µg/mL (≈ 4.74 µM)

Source: publication PMC10945555, “Improving Activity of New Arylurea Agents against Multidrug-Resistant and Biofilm-Producing Staphylococcus epidermidis” (ACS Medicinal Chemistry Letters, 2024)
